Measured values taken from patent US12583849B2, “KCNT1 inhibitors and methods of use” (Praxis Precision Medicines, Inc., priority 2020, dated 2026).

Target: T1, KCNT1 (KNa1.1, Slack) (Homo sapiens, UniProt Q5JUK3)
T1 construct: expressed in transfected cells; host or cells: HEK-TREX (tetracycline-inducible cell line)
T1 sequence (Q5JUK3 1-1230): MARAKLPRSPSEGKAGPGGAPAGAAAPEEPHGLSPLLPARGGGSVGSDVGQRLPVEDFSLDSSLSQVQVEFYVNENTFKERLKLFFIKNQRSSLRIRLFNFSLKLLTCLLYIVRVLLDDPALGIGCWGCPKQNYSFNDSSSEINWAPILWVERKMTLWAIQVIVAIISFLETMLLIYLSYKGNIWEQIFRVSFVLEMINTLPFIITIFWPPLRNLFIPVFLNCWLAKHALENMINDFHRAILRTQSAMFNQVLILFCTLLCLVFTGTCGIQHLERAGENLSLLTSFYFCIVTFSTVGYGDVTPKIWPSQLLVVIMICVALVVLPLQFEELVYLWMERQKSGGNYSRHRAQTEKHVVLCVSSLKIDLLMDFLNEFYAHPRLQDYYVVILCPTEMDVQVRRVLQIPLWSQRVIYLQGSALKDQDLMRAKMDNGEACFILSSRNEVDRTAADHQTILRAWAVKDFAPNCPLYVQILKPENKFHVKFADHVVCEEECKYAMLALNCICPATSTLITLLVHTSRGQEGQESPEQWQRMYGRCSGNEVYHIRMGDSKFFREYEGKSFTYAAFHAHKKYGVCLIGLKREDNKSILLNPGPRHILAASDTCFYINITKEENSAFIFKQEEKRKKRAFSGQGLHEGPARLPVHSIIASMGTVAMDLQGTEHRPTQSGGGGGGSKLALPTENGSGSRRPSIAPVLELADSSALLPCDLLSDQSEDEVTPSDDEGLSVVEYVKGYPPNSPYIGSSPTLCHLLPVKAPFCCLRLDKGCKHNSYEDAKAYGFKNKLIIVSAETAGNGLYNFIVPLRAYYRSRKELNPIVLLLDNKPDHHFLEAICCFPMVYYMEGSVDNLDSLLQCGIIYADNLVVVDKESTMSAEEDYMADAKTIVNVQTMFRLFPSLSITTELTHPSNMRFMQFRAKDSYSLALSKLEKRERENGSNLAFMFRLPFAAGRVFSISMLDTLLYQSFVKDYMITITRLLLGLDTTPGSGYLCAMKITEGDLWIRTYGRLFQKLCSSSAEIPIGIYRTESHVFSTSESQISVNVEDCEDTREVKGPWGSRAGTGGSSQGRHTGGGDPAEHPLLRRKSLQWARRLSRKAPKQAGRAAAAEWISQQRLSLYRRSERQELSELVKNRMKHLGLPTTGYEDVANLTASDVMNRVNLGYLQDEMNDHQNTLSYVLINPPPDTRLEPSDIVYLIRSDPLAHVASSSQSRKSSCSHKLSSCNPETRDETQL
Test: KCNT1-WT-Basal Patch Clamp Assay
Type: cell-based
Settings: tetracycline inducible cell line (HEK-TREX); SyncroPatch 384PE automated patch clamp, perforated patch mode, room temperature, step from -80 mV to 0 mV
Experimental: KCNT1-WT-Basal—Patch Clamp Assay
Inhibition of KCNT1 (KNa1.1, Slack) was evaluated using a tetracycline inducible cell line (HEK-TREX). Currents were recorded using the SyncroPatch 384PE automated, patch clamp system. Pulse generation and data collection were performed with PatchController384 V1.3.0 and DataController384 V1.2.1 (Nanion Technologies). The access resistance and apparent membrane capacitance were estimated using built-in protocols. Current were recorded in perforated patch mode (10 μM escin) from a population of cells. The cells were lifted, triturated, and resuspended at 800,000 cells/ml. The cells were allowed to recover in the cell hotel prior to experimentation. Currents were recorded at room temperature. The external solution contained the following (in mM): NaCl 105, NMDG 40, KCl 4, MgCl2 1, CaCl2 5 and HEPES 10 (pH=7.4, Osmolarity ˜300 mOsm). The extracellular solution was used as the wash, reference and compound delivery solution. The internal solution contained the following (in mM): NaCl 70, KF 70, KCl 10, EGTA 5, HEPES 5 and Escin 0.01 (pH=7.2, Osmolarity ˜295 mOsm). Escin is made at a 5 mM stock in water, aliquoted, and stored at −20° C. The compound plate was created at 2× concentrated in the extracellular solution. The compound was diluted to 1:2 when added to the recording well. The amount of DMSO in the extracellular solution was held constant at the level used for the highest tested concentration. A holding potential of −80 mV with a 100 ms step to 0 mV was used. Mean current was measured during the step to 0 mV. […] The average mean current from 3 sweeps was calculated and the % inhibition of each compound was calculated. The % Inhibition as a function of the compound concentration was fit with a Hill equation to derive IC50, slope, min and max parameters. If KCNT1 inhibition was less than 50% at the highest tested concentration or if an IC50 could not be calculated, then a percent inhibition was reported in place of the IC50.
In this table, “A” indicates IC50 of less than or equal to 1 μM; “B” indicates inhibition of between 1 μM to 20 μM; and “C” indicates inhibition of greater than or equal to 20 μM.

IC50	Structure (SMILES)
≤ 1000 nM	C[C@H](NC(=O)c1ccnc(C(F)(F)F)c1)c1nc(-c2ccnc(C3CC3)c2)no1 [Compound I-96, (S)—N-(1-(3-(2-cyclopropylpyridin-4-yl)-1,2,4-oxadiazol-5-yl)ethyl)-2-(trifluoromethyl)isonicotinamide]
≤ 1000 nM	Cc1ccc(C(=O)N[C@@H](C)c2nc(-c3ccnc(C4CC4)c3)no2)cc1 [Compound I-87, (S)—N-(1-(3-(2-cyclopropylpyridin-4-yl)-1,2,4-oxadiazol-5-yl)ethyl)-4-methylbenzamide]
≤ 1000 nM	Cc1cc(C(=O)N[C@@H](C)c2nc(-c3ccnc(C4CC4)c3)no2)ccn1 [Compound I-101, (S)—N-(1-(3-(2-cyclopropylpyridin-4-yl)-1,2,4-oxadiazol-5-yl)ethyl)-2-methyl isonicotinamide]
1000 to 20000 nM	CCn1nc(C)c(C(=O)N[C@@H](C)c2nc(-c3cccc(F)c3)no2)n1 [Compound I-40, (S)-2-ethyl-N-(1-(3-(3-fluorophenyl)-1,2,4-oxadiazol-5-yl)ethyl)-5-methyl-2H-1,2,3-triazole-4-carboxamide]
≤ 1000 nM	C[C@H](NC(=O)N1CCOc2ccccc21)c1nc(-c2ccnc(C3CC3)c2)no1 [II-6]
≤ 1000 nM	C[C@H](NC(=O)C1CCCCC1)c1nc(-c2ccnc(C(F)(F)F)c2)no1 [Compound I-9]
1000 to 20000 nM	C[C@H](NC(=O)C1CC(F)(F)C1)c1nc(-c2ccnc(C(F)(F)F)c2)no1 [Compound I-2, (S)-3,3-difluoro-N-(1-(3-(2-(trifluoromethyl)pyridin-4-yl)-1,2,4-oxadiazol-5-yl)ethyl)cyclobutane-1-carboxamide]
≤ 1000 nM	C[C@H](NC(=O)CN(C)c1ccccc1)c1nc(-c2ccnc(C(F)(F)F)c2)no1 [III-4, (S)-2-(methyl(phenyl)amino)-N-(1-(3-(2-(trifluoromethyl)pyridin-4-yl)-1,2,4-oxadiazol-5-yl)ethyl)acetamide]
≤ 1000 nM	Cc1ccccc1C(=O)N[C@@H](C)c1nc(-c2ccnc(C3CC3)c2)no1 [Compound I-83, N-[(1S)-1-[3-(2-cyclopropyl-4-pyridyl)-1,2,4-oxadiazol-5-yl]ethyl]-2-methyl-benzamide]
1000 to 20000 nM	C[C@H](NC(=O)CC(F)(F)F)c1nc(-c2ccnc(C(F)(F)F)c2)no1 [III-2, (S)-3,3,3-trifluoro-N-(1-(3-(2-(trifluoromethyl)pyridin-4-yl)-1,2,4-oxadiazol-5-yl)ethyl)propenamide]
≤ 1000 nM	CC1CCC(C(=O)N[C@@H](C)c2nc(-c3ccnc(C(F)(F)F)c3)no2)CC1 (stereo partly drawn) [Compound I-19, (S)-4-methyl-N-(1-(3-(2-(trifluoromethyl)pyridin-4-yl)-1,2,4-oxadiazol-5-yl)ethyl)cyclohexane-1-carboxamide]
≤ 1000 nM	C[C@H](NC(=O)N(C)C(C)(C)C)c1nc(-c2ccnc(C3CC3)c2)no1 [II-9]
1000 to 20000 nM	C[C@H](NC(=O)c1cccnc1)c1nc(-c2ccnc(C(F)(F)F)c2)no1 [Compound I-11, (S)—N-(1-(3-(2-(trifluoromethyl)pyridin-4-yl)-1,2,4-oxadiazol-5-yl)ethyl)nicotinamide]
≤ 1000 nM	CCS(=O)(=O)c1ccc(C(=O)N[C@@H](C)c2nc(-c3ccnc(C4CC4)c3)no2)s1 [Compound I-93, (S)—N-(1-(3-(2-cyclopropylpyridin-4-yl)-1,2,4-oxadiazol-5-yl)ethyl)-5-(ethylsulfonyl)thiophene-2-carboxamide]
≤ 1000 nM	C[C@H](NC(=O)c1cccc(Cl)c1)c1nc(-c2ccnc(C3CC3)c2)no1 [Compound I-63, 3-chloro-N-[(1S)-1-[3-(2-cyclopropyl-4-pyridyl)-1,2,4-oxadiazol-5-yl]ethyl]benzamide]
1000 to 20000 nM	C[C@H](NC(=O)c1ccns1)c1nc(-c2ccnc(C(F)(F)F)c2)no1 [Compound I-22, (S)—N-(1-(3-(2-(trifluoromethyl)pyridin-4-yl)-1,2,4-oxadiazol-5-yl)ethyl)isothiazole-5-carboxamide]
1000 to 20000 nM	C[C@H](NC(=O)Cc1ccccc1)c1nc(-c2ccnc(C(F)(F)F)c2)no1 [Compound I-13, (S)-2-phenyl-N-(1-(3-(2-(trifluoromethyl)pyridin-4-yl)-1,2,4-oxadiazol-5-yl)ethyl)acetamide]
1000 to 20000 nM	C[C@H](NC(=O)c1cccc(C(=O)N(C)C)c1)c1nc(-c2ccnc(C3CC3)c2)no1 [Compound I-90, (S)—N1-(1-(3-(2-cyclopropylpyridin-4-yl)-1,2,4-oxadiazol-5-yl)ethyl)-N3,N3-dimethylisophthalamide]
1000 to 20000 nM	C[C@H](NC(=O)C1(C)CC1)c1nc(-c2ccnc(C(F)(F)F)c2)no1 [Compound I-33, (S)-1-methyl-N-(1-(3-(2-(trifluoromethyl)pyridin-4-yl)-1,2,4-oxadiazol-5-yl)ethyl)cyclopropane-1-carboxamide]
≥ 20000 nM	C[C@H](NC(=O)C1CCCCN1C)c1nc(-c2ccnc(C(F)(F)F)c2)no1 (stereo partly drawn) [Compound I-66, 1-methyl-N—((S)-1-(3-(2-(trifluoromethyl)pyridin-4-yl)-1,2,4-oxadiazol-5-yl)ethyl)piperidine-2-carboxamide]
≤ 1000 nM	C[C@H](NC(=O)C(C)(C)C)c1nc(-c2ccnc(C3CC3)c2)no1 [III-5]
≤ 1000 nM	C[C@H](NC(=O)C1CCCC1)c1nc(-c2ccnc(C3CC3)c2)no1 [Compound I-105, (S)—N-(1-(3-(2-cyclopropylpyridin-4-yl)-1,2,4-oxadiazol-5-yl)ethyl)cyclopentanecarboxamide]
≤ 1000 nM	C[C@H](NC(=O)c1cccc(C(F)(F)F)c1)c1nc(-c2ccnc(C3CC3)c2)no1 [Compound I-95, (S)—N-(1-(3-(2-cyclopropylpyridin-4-yl)-1,2,4-oxadiazol-5-yl)ethyl)-3-(trifluoromethyl)benzamide]
≤ 1000 nM	C[C@H](NC(=O)C1CCCC12CC2)c1nc(-c2ccnc(C(F)(F)F)c2)no1 (stereo partly drawn) [Compound I-82, N-[(1S)-1-[3-[2-(trifluoromethyl)-4-pyridyl]-1,2,4-oxadiazol-5-yl]ethyl]spiro[2.4]heptane-7-carboxamide]
≥ 20000 nM	C[C@H](NC(=O)c1ccccn1)c1nc(-c2ccnc(C(F)(F)F)c2)no1 [Compound I-7, (S)—N-(1-(3-(2-(trifluoromethyl)pyridin-4-yl)-1,2,4-oxadiazol-5-yl)ethyl)picolinamide]
≤ 1000 nM	CC(C)Oc1cc(-c2noc([C@H](C)NC(=O)NC(C)(C)C)n2)ccn1 [II-1]
≤ 1000 nM	C[C@H](NC(=O)c1ccccc1)c1nc(-c2ccnc(C3CC3)c2)no1 [Compound I-41, (S)—N-(1-(3-(2-cyclopropylpyridin-4-yl)-1,2,4-oxadiazol-5-yl)ethyl)benzamide]
